Test results reported in PubChem BioAssay (NCI).
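1) Cells in 96-well plates. 2) Compound, 48 h, 5 concentrations. 3) Linear interpolation between surrounding doses. 4) Unreached endpoint = highest concentration. At the GI50, growth is halved. TGI is the concentration that stops growth completely.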

Tests used:
Assay in all cases: NCI-60 cell line screen, 48 h
[1] = tested on: A498 renal
[2] = tested on: CCRF-CEM leukemia
[3] = tested on: RPMI-8226 leukemia
[4] = tested on: LOX IMVI melanoma
[5] = tested on: 786-0 renal
[6] = tested on: KM12 colon
[7] = tested on: NCI-H460 lung
[8] = tested on: K-562 leukemia
[9] = tested on: UO-31 renal
[10] = tested on: OVCAR-5 ovarian

SMILES: Nc1cc(C(F)F)c(-c2nc(N3[C@@H]4CC[C@H]3COC4)nc(N3[C@@H]4CC[C@H]3COC4)n2)cn1
- GI50 [1]: 0.0367 µM
- TGI [1]: 0.232 µM
- GI50 [2]: 0.69 µM
- TGI [2]: > 100 µM
- GI50 [3]: 0.237 µM
- GI50 [4]: 0.336 µM
- TGI [4]: > 48 µM
- GI50 [5]: 0.306 µM
- TGI [5]: 14.3 µM
- GI50 [6]: 0.569 µM
- TGI [6]: > 100 µM
- GI50 [7]: 0.306 µM
- TGI [7]: > 100 µM
- GI50 [8]: 0.673 µM
- TGI [8]: > 100 µM
- GI50 [9]: 0.119 µM
- TGI [9]: 6.85 µM
- GI50 [10]: 0.3 µM
- TGI [10]: 43 µM

SMILES: Cc1cc(NC(=O)CCc2ccc(N3C(N)=NC(N)=NC3(C)C)cc2)ccc1S(=O)(=O)F
- GI50 [1]: > 23.7 µM
- TGI [1]: > 100 µM
- GI50 [2]: 0.243 µM
- TGI [2]: > 100 µM
- GI50 [3]: 0.464 µM
- TGI [3]: > 100 µM
- GI50 [4]: 0.172 µM
- TGI [4]: > 100 µM
- GI50 [5]: 0.291 µM
- TGI [5]: > 100 µM
- GI50 [6]: 0.338 µM
- TGI [6]: > 63.7 µM
- GI50 [7]: < 0.0246 µM
- TGI [7]: 36.1 µM
- GI50 [8]: 0.737 µM
- TGI [8]: > 100 µM
- GI50 [9]: > 100 µM
- TGI [9]: > 100 µM
- GI50 [10]: 0.468 µM
- TGI [10]: > 100 µM

SMILES: CC(=O)N1c2ccccc2C23CCN4CC5=CCOC(O)C(C5CC42)C13 (centres undefined)
- TGI [1]: > 100 µM
- TGI [2]: > 100 µM
- TGI [3]: > 100 µM
- TGI [4]: > 100 µM
- TGI [5]: > 100 µM
- TGI [6]: > 100 µM
- TGI [7]: > 100 µM
- TGI [8]: > 100 µM
- TGI [9]: > 100 µM
- TGI [10]: > 100 µM

SMILES: COC1OC(C)C(OC(=O)C(C)(C)C)C(C)(O)C1O (centres undefined)
- TGI [1]: > 100 µM
- TGI [2]: > 100 µM
- TGI [3]: > 100 µM
- TGI [4]: > 100 µM
- TGI [5]: > 100 µM
- TGI [6]: > 100 µM
- TGI [7]: > 100 µM
- TGI [8]: > 100 µM
- TGI [10]: > 100 µM

SMILES: CC(=O)Nc1ccc(/C=c2\sc3nnc(/C=C/c4ccccc4)n3c2=O)cc1
- TGI [1]: > 50 µM
- TGI [2]: > 50 µM
- TGI [3]: > 50 µM
- TGI [4]: > 50 µM
- TGI [5]: > 50 µM
- TGI [6]: > 50 µM
- TGI [7]: > 50 µM
- TGI [8]: > 50 µM
- TGI [9]: > 50 µM
- TGI [10]: > 50 µM

SMILES: CSc1s[s+]c(SC)c1[O-]
- TGI [1]: > 100 µM
- TGI [2]: > 100 µM
- TGI [5]: 30.3 µM
- TGI [6]: > 100 µM
- TGI [7]: > 100 µM
- TGI [8]: 25.2 µM
- TGI [9]: > 100 µM
- TGI [10]: > 100 µM

SMILES: COc1ccc(OC)c(-c2nc3sccn3c2/C=C2/C(=O)Nc3ccccc32)c1
- GI50 [2]: 0.273 µM
- TGI [2]: 5.37 µM
- GI50 [3]: 0.241 µM
- TGI [3]: 0.856 µM
- GI50 [4]: 2.82 µM
- TGI [4]: 35.1 µM
- GI50 [5]: 0.273 µM
- TGI [5]: 18.6 µM
- GI50 [6]: 0.119 µM
- TGI [6]: 2.06 µM
- GI50 [7]: 0.511 µM
- TGI [7]: > 37.6 µM
- GI50 [8]: 0.49 µM
- TGI [8]: > 100 µM
- GI50 [9]: 1.1 µM
- TGI [9]: > 41 µM
- GI50 [10]: 0.437 µM
- TGI [10]: 12.8 µM

SMILES: COC(=O)c1c2c(c(C)[n+]([O-])c1C)C(=O)C(NCc1ccc(F)c(Cl)c1)=CC2=O
- GI50 [1]: 1.52 µM
- TGI [1]: 3.68 µM
- GI50 [2]: 3.03 µM
- TGI [2]: 22.8 µM
- GI50 [3]: 3.08 µM
- TGI [3]: 24.1 µM
- GI50 [4]: 2.34 µM
- TGI [4]: 8.88 µM
- GI50 [5]: 3.1 µM
- TGI [5]: 22.7 µM
- GI50 [6]: 1.96 µM
- TGI [6]: 9.63 µM
- GI50 [7]: 1.51 µM
- TGI [7]: 9.09 µM
- GI50 [8]: 2.67 µM
- TGI [8]: > 100 µM
- GI50 [9]: 2.11 µM
- TGI [9]: 7.46 µM
- GI50 [10]: 1.66 µM
- TGI [10]: 3.82 µM
